The source of these data is patent publication US11253524B2 (Gilead Sciences, Inc., priority 2018, dated 2022).

Series [1] is described as follows: In vivo BIC metabolism, plasma profile after oral [14C]BIC, monkey. Also on record: species or system Cynomolgus Monkey. Particulars: monkeys, 0 to 72 hours post dose, ND = not detected. From the text: Metabolic pathways included hydroxylation, oxidative defluorination, direct glucuronidation, and oxidation followed by phase II conjugation. In the monkey, BIC was metabolized through the oxidative pathways to a greater extent compared to rat and human.

The target of a further series is T1, OATP1B1 (Homo sapiens, UniProt Q9Y6L6).
T1 sequence (Q9Y6L6 1-691): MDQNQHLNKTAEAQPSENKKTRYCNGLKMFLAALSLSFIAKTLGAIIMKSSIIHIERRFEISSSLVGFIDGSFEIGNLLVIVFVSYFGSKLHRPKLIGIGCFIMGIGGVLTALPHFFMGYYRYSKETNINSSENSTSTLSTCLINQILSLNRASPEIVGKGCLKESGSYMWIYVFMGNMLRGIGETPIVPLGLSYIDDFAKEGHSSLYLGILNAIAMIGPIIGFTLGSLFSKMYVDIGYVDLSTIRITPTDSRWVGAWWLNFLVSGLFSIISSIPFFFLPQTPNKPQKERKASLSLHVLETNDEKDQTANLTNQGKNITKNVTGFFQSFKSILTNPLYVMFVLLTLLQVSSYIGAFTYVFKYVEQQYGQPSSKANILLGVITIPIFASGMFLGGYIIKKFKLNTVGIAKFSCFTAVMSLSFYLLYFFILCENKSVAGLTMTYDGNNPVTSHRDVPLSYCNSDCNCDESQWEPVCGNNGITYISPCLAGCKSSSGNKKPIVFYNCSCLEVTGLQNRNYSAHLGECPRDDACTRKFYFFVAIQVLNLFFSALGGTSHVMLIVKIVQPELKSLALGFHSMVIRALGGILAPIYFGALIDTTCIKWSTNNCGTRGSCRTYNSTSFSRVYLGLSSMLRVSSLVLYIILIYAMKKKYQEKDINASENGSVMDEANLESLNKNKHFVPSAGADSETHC
In words: OATP1B1 inhibition assay using Fluo-3 as probe substrate, CHO cells. Format: cell-based. Also on record: expressed in transfected cells; host or cells: CHO cells. Particulars: for IC50: OATP1B1, Fluo-3; for inhibition at 1 h, 100 µM: human, CHO cells transfected with human OATP1B1, pH 7.4, probe Fluo-3 (2 μM), OATP1B1, Fluo-3, at 100 μM, read-out: Maximum inhibition at highest test conc. (% of control). The protocol: (§1) Chinese Hamster Ovary (CHO) cells, either wild type or transfected with the genes encoding human OATP1B1 or OATP1B3, were maintained in Dulbecco's Modification of Eagle's Medium (DMEM) containing 1,000 mg/L D-glucose, L-glutamine, 25 mM HEPES buffer, and 110 mg/L sodium pyruvate, 1% Pen/Strep, 10% fetal bovine serum, 0.05 mg/mL L-proline and 0.5 mg/mL of geneticin G-418. Cells were maintained in incubators set at 37° C., 90% humidity and 5% CO2. OATP1B1 or OATP1B3 overexpressing CHO cells were seeded in BioCoat Poly-D-Lysine coated 96 well black cell culture plates with clear bottoms at a density of 1×10^5 cells/well. Sodium butyrate (10 mM) was added to the OATP1B1 and OATP1B3 cells to increase the protein expression level, and the cells were grown to confluence overnight. The assay buffer contained 142 mM NaCl, 5 mM KCl, 1 mM KH2PO4, 1.2 mM MgSO4, 1.5 mM CaCl2, 5 mM Glucose and 12.5 mM HEPES (pH 7.4). After removal of the media and before adding test compounds, the cells were washed twice with 37° C. assay buffer followed by a 0.5 h pre-incubation with assay buffer. Test compounds were serially diluted in DMSO at 250-fold of final test concentrations to create the compound spiking solutions. Compounds were then spiked into assay buffer containing 2 μM Fluo-3 and incubated with cells for 1 h. Following removal of assay buffer containing Fluo-3 and test compound, cells were washed 3 times with 200 μl of ice cold assay buffer and then lysed at room temperature for 15 minutes in a lysis buffer containing […] in a 1 mM CaCl2 solution. Substrate accumulations were determined for Fluo-3 fluorescence at an excitation of 485 nm and emission of 530 nm.
(§2) Percent inhibition was calculated according to the following equation: % inhibition=[1−{[OATP]i−[WT]ni}/{[OATP]ni−[WT]ni}]*100 where: [OATP]i represent the substrate accumulation in the presence of test compound for either OATP1B1, OATP1B3, or OATP2B1 cells; [OATP]ni represents the substrate accumulation in the absence of test compound for either OATP1B1, OATP1B3, or OATP2B1 cells, respectively; and [WT]ni represents the substrate accumulation in the absence of test compound for wild type cells or Mock cells, respectively. IC50 Determination in Transporter Assays
(§3) IC50 was determined according to the procedures described in Example 5. […] Results are reported as NIO (no interaction observed).

For another series, the target named is T2, OATP1B3 (Homo sapiens, UniProt Q9NPD5).
T2 sequence (Q9NPD5 1-702): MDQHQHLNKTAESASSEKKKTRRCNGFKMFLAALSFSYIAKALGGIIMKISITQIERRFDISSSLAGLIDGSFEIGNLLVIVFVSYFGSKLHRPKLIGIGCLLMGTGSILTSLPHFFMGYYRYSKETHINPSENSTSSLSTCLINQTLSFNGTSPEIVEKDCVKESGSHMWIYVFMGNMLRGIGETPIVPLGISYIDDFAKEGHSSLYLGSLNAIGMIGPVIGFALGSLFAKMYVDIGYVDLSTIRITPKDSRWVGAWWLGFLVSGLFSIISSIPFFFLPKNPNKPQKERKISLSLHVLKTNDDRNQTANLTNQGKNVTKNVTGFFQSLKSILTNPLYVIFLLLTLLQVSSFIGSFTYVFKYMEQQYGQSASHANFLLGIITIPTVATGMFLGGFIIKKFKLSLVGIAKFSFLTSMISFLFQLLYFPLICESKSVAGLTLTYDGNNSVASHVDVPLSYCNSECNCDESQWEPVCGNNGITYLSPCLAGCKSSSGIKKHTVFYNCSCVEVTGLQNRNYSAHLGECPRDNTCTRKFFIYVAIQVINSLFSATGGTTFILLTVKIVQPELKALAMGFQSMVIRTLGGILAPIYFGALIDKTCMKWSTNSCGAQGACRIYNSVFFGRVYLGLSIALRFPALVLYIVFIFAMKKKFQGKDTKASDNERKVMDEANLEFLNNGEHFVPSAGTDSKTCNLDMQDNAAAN
The series can be described thus: OATP1B3 inhibition assay using Fluo-3 as probe substrate, CHO cells. The class given is cell-based. More on the design: expressed in transfected cells; host or cells: CHO cells. Particulars: for Maximum inhibition at highest test conc. (% of control) / inhibition at 1 h, 100 µM: OATP1B3, Fluo-3, at 100 μM; for IC50 (μM): OATP1B3, Fluo-3, NIO = no interaction observed; for inhibition at 1 h, 100 µM: human, CHO cells transfected with human OATP1B3, pH 7.4, probe Fluo-3 (2 μM), read-out: Maximum inhibition at highest test conc. (% of control). The method, then:
as §1, §2, §3

A value given as a limit tells only on which side of the number the result lay.

Turning to `O=C(NCc1c(F)cc(F)cc1F)c1cn2c(c(O)c1=O)C(=O)N1[C@H]3CC[C@H](C3)O[C@@H]1C2` [BIC, bictegravir, reference compound], in series [1], the “% of Total Radioactivity in AUC Pooled Plasma” value (“% of Total Radioactivity” for short) turned out to be 80.2%.

As for `O=C(NCc1c(F)cc(F)cc1F)c1cn2c(c(O[C@@H]3O[C@H](C(=O)O)[C@@H](O)[C@H](O)[C@H]3O)c1=O)C(=O)N1[C@H]3CC[C@H](C3)O[C@@H]1C2` [Metabolite M15], the “% of Total Radioactivity” value in series [1] was determined as 0.55%. At OATP1B1, the IC50 is greater than 100 µM and the inhibition at 1 h, 100 µM amounted to 39%. Further, on OATP1B3 (100 µM), the “Maximum inhibition at highest test conc. (% of control)” value (shortened to “Maximum inhibition … (% of control)”) is listed as “minimal to no inhibition”. Further, on OATP1B3, the “IC50 (μM)” value is recorded as “NIO” and the inhibition at 1 h, 100 µM was found to be 0%.

As to `O=C(NCc1c(F)cc(F)c(OS(=O)(=O)O)c1F)c1cn2c(c(O)c1=O)C(=O)N1C(C2)O[C@@H]2CC[C@H]1C2` (stereo partly drawn) [Metabolite M20], the “% of Total Radioactivity” value in series [1] turned out to be 0.77%. Moreover, on OATP1B1, half-maximal inhibition (IC50) required 90.1 µM and the inhibition at 1 h, 100 µM is 54%. Moreover, on OATP1B3, the “Maximum inhibition … (% of control)” value is reported as “minimal to no inhibition”; the “IC50 (μM)” value is given as “NIO”; the inhibition at 1 h, 100 µM was found to be 18%.

Turning to `O=C(NCc1c(F)cc(F)c(O)c1F)c1cn2c(c(O)c1=O)C(=O)N1[C@H]3CC[C@H](C3)O[C@@H]1C2` [Metabolite M23], at OATP1B1, the 50% inhibitory concentration (IC50) came to 99.9 µM and the inhibition at 1 h, 100 µM turned out to be 51%. In addition, at OATP1B3, the “Maximum inhibition … (% of control)” value is “minimal to no inhibition”; the “IC50 (μM)” value is “NIO”; the inhibition at 1 h, 100 µM worked out at 20%.

The IC50 is the midpoint of a concentration-inhibition curve. By inhibition is commonly meant how much of the control response was suppressed.
